Assay results reported in patent US20240148821A1, “PHARMACEUTICAL USE OF CYCLIC PEPTIDE COMPOUND” (CHUGAI SEIYAKU KABUSHIKI KAISHA, priority 2021, published 2024).
pIC50: −log10 of the molar value. Square brackets hold non-standard residues; d marks the D form. Peptide text beside a SMILES is read from it. * marks the point of attachment. hPhe(3-Cl-4-CF3) = N[C@@H](CCc1ccc(C(F)(F)F)c(Cl)c1)C(=O)O; NMePhe(4-CF3) = CN[C@@H](Cc1ccc(C(F)(F)F)cc1)C(=O)O; NMePhe(4-Me) = CN[C@@H](Cc1ccc(C)cc1)C(=O)O; NMeGly(cPent) = CN[C@H](C(=O)O)C1CCCC1; NMeCha = CN[C@@H](CC1CCCCC1)C(=O)O; CH2CONHtBu = CC(C)(C)NC(=O)C*; NMeL = CN[C@@H](CC(C)C)C(=O)O; NMeV = CN[C@H](C(=O)O)C(C)C; d(β3hA) = C[C@@H](N)CC(=O)O; NMeS = CN[C@@H](CO)C(=O)O; NMeA = CN[C@@H](C)C(=O)O; dNMeA = CN[C@H](C)C(=O)O; Ac5c = NC1(C(=O)O)CCCC1; Aze = O=C(O)[C@@H]1CCN1; Ac4c = NC1(C(=O)O)CCC1; CH2CMe2OH = CC(C)(O)C*; NBuGly = CCCCNCC(=O)O; Aib = CC(C)(N)C(=O)O; Isopentyl = CC(C)CC*; Sar = CNCC(=O)O

Target: protein-protein interaction between Kras and SOS1 (biotin-tagged human Kras loaded with GDP, His-tagged human SOS1) (Homo sapiens (Human), UniProt P01116, G12D)
Test: Protein-protein interaction inhibition between Kras and SOS1 (KrasG12D-SOS PPI) using AlphaScreen;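 further: kras produced in E. coli, Ni-coupled donor beads and streptavidin acceptor beads, excitation 680 nm with emission detected at 520–620 nm via singlet oxygen transfer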
Assay type: biochemical
Conditions: AlphaScreen; biotin-tagged human Kras loaded with GDP, His-tagged human SOS1; read-out: KRAS G12D-SOS PPI IC50

| SMILES | pIC50 |
| --- | --- |
| CC[C@H](C)[C@@H]1NC(=O)[C@H](C)N(C)C(=O)C[C@@H](C)NC(=O)[C@H](C2CCCC2)N(C)C(=O)C2(CCCC2)NC(=O)[C@@H]2CCCN2C(=O)[C@H](CCc2ccc(C(F)(F)F)c(Cl)c2)NC(=O)[C@H]2CCCN2C(=O)[C@H](Cc2ccc(C(F)(F)F)cc2)N(C)C(=O)CN(C)C(=O)CN(C)C1=O [Compound 1470] (cyclo([Ac5c][NMeGly(cPent)][d(β3hA)][NMeA]I[Sar][Sar][NMePhe(4-CF3)][dP][hPhe(3-Cl-4-CF3)]P)) | 6.68 |
| CC[C@H](C)[C@@H]1NC(=O)[C@H](CC(C)C)N(C)C(=O)C[C@@H](C)NC(=O)[C@H](C2CCCC2)N(C)C(=O)C2(CCCC2)NC(=O)[C@@H]2CCCN2C(=O)[C@H](CCc2ccc(C(F)(F)F)c(Cl)c2)NC(=O)CN(C)C(=O)[C@H](Cc2ccc(C)cc2)N(C)C(=O)CN(C)C(=O)CN(C)C1=O [Compound 1471] (cyclo([Ac5c][NMeGly(cPent)][d(β3hA)][NMeL]I[Sar][Sar][NMePhe(4-Me)][Sar][hPhe(3-Cl-4-CF3)]P)) | 8.77 |
| CCCCN1CC(=O)N(C)CC(=O)N(C)[C@@H](COCCC(C)C)C(=O)N(C)CC(=O)N[C@@H](CCc2ccc(C(F)(F)F)c(Cl)c2)C(=O)N[C@@H](COCC(C)(C)O)C(=O)NC(C)(C)C(=O)N(C)[C@@H](CC(C)C)C(=O)N[C@H](C)CC(=O)N(C)[C@@H](CC(C)C)C(=O)N[C@@H]([C@@H](C)CC)C1=O [Compound 1473] (cyclo([Aib][NMeL][d(β3hA)][NMeL]I[NBuGly][Sar][NMeS](Isopentyl)[Sar][hPhe(3-Cl-4-CF3)]S(CH2CMe2OH))) | 6.41 |
| CC[C@H](C)[C@@H]1NC(=O)[C@H](CC(C)C)N(C)C(=O)C[C@@H](C)NC(=O)[C@H](C2CCCC2)N(C)C(=O)C2(CCCC2)NC(=O)[C@@H]2CCCN2C(=O)[C@H](CCc2ccc(C(F)(F)F)c(Cl)c2)NC(=O)CN(C)C(=O)[C@H](Cc2ccc(C(F)(F)F)cc2)N(C)C(=O)[C@@H]2CCN2C(=O)[C@H](C)N(C)C1=O [Compound 1475] (cyclo([Ac5c][NMeGly(cPent)][d(β3hA)][NMeL]I[NMeA][Aze][NMePhe(4-CF3)][Sar][hPhe(3-Cl-4-CF3)]P)) | 8.57 |
| CC[C@H](C)[C@@H]1NC(=O)[C@H](CC(C)C)N(C)C(=O)C[C@@H](C)NC(=O)[C@H](C2CCCC2)N(C)C(=O)C2(CCCC2)NC(=O)[C@@H]2CCCN2C(=O)[C@H](CCc2ccc(C(F)(F)F)c(Cl)c2)NC(=O)CN(C)C(=O)[C@H](CC2CCCCC2)N(C)C(=O)[C@@H]2CCN2C(=O)[C@H](C)N(C)C1=O [Compound 1477] (cyclo([Ac5c][NMeGly(cPent)][d(β3hA)][NMeL]I[NMeA][Aze][NMeCha][Sar][hPhe(3-Cl-4-CF3)]P)) | 7.55 |
| CC[C@H](C)[C@@H]1NC(=O)[C@H](CC(C)C)N(C)C(=O)C[C@@H](C)NC(=O)[C@H](C2CCCC2)N(C)C(=O)C2(CCCC2)NC(=O)[C@@H]2CCCN2C(=O)[C@H](CCc2ccc(C(F)(F)F)c(Cl)c2)NC(=O)[C@@H](C)N(C)C(=O)[C@H](Cc2ccc(C(F)(F)F)cc2)N(C)C(=O)[C@@H]2CCN2C(=O)[C@H](C)N(C)C1=O [Compound 1482] (cyclo([Ac5c][NMeGly(cPent)][d(β3hA)][NMeL]I[NMeA][Aze][NMePhe(4-CF3)][dNMeA][hPhe(3-Cl-4-CF3)]P)) | 7.06 |
| CC[C@H](C)[C@@H]1NC(=O)[C@H](C)N(C)C(=O)C[C@@H](C)NC(=O)[C@H](C2CCCC2)N(C)C(=O)C2(CCCC2)NC(=O)[C@@H]2CCCN2C(=O)[C@H](CCc2ccc(C(F)(F)F)c(Cl)c2)NC(=O)CN(C)C(=O)[C@H](Cc2ccc(C)cc2)N(C)C(=O)CN(C)C(=O)CN(C)C1=O [Compound 1485] (cyclo([Ac5c][NMeGly(cPent)][d(β3hA)][NMeA]I[Sar][Sar][NMePhe(4-Me)][Sar][hPhe(3-Cl-4-CF3)]P)) | 9.08 |
| CC[C@H](C)[C@@H]1NC(=O)[C@H](C)N(C)C(=O)C[C@@H](C)NC(=O)[C@H](C2CCCC2)N(C)C(=O)C2(CCC2)NC(=O)[C@@H]2CCCN2C(=O)[C@H](CCc2ccc(C(F)(F)F)c(Cl)c2)NC(=O)CN(C)C(=O)[C@H](Cc2ccc(C(F)(F)F)cc2)N(C)C(=O)CN(C)C(=O)CN(C)C1=O [Compound 1486] (cyclo([Ac4c][NMeGly(cPent)][d(β3hA)][NMeA]I[Sar][Sar][NMePhe(4-CF3)][Sar][hPhe(3-Cl-4-CF3)]P)) | 9.30 |
| CC[C@H](C)[C@@H]1NC(=O)[C@H](CC(C)C)N(C)C(=O)C[C@@H](C)NC(=O)[C@H](CC(C)C)N(C)C(=O)C2(CCCC2)NC(=O)[C@H](COCC(=O)NC(C)(C)C)N(C)C(=O)[C@H](CCc2ccc(C(F)(F)F)c(Cl)c2)NC(=O)CN(C)C(=O)[C@H](COCCC(C)C)N(C)C(=O)CN(C)C(=O)CN(C)C1=O [Compound 1492] (cyclo([Ac5c][NMeL][d(β3hA)][NMeL]I[Sar][Sar][NMeS](Isopentyl)[Sar][hPhe(3-Cl-4-CF3)][NMeS](CH2CONHtBu))) | 6.62 |
| CC[C@H](C)[C@@H]1NC(=O)[C@H](CC(C)C)N(C)C(=O)C[C@@H](C)NC(=O)[C@H](C2CCCC2)N(C)C(=O)C2(CCCC2)NC(=O)[C@@H]2CCCN2C(=O)[C@H](CCc2ccc(C(F)(F)F)c(Cl)c2)NC(=O)CN(C)C(=O)[C@H](Cc2ccc(C(F)(F)F)cc2)N(C)C(=O)[C@@H]2CCN2C(=O)CN(C)C1=O [Compound 1496] (cyclo([Ac5c][NMeGly(cPent)][d(β3hA)][NMeL]I[Sar][Aze][NMePhe(4-CF3)][Sar][hPhe(3-Cl-4-CF3)]P)) | 8.70 |
| CC[C@H](C)[C@@H]1NC(=O)[C@H](C)N(C)C(=O)C[C@@H](C)NC(=O)[C@H](C2CCCC2)N(C)C(=O)C2(CCCC2)NC(=O)[C@@H]2CCCN2C(=O)[C@H](CCc2ccc(C(F)(F)F)c(Cl)c2)NC(=O)[C@@H](C)N(C)C(=O)[C@H](Cc2ccc(C(F)(F)F)cc2)N(C)C(=O)[C@@H]2CCN2C(=O)[C@H](C)N(C)C1=O [Compound 1497] (cyclo([Ac5c][NMeGly(cPent)][d(β3hA)][NMeA]I[NMeA][Aze][NMePhe(4-CF3)][dNMeA][hPhe(3-Cl-4-CF3)]P)) | 7.60 |
| CC[C@H](C)[C@@H]1NC(=O)[C@H](CC(C)C)N(C)C(=O)C[C@@H](C)NC(=O)[C@H](C2CCCC2)N(C)C(=O)C2(CCCC2)NC(=O)[C@@H]2CCCN2C(=O)[C@H](CCc2ccc(C(F)(F)F)c(Cl)c2)NC(=O)CN(C)C(=O)[C@H](CC2CCCCC2)N(C)C(=O)[C@@H]2CCN2C(=O)CN(C)C1=O [Compound 1499] (cyclo([Ac5c][NMeGly(cPent)][d(β3hA)][NMeL]I[Sar][Aze][NMeCha][Sar][hPhe(3-Cl-4-CF3)]P)) | 7.72 |
| CC[C@H](C)[C@@H]1NC(=O)[C@H](CC(C)C)N(C)C(=O)C[C@@H](C)NC(=O)[C@H](C2CCCC2)N(C)C(=O)C2(CCCC2)NC(=O)[C@@H]2CCCN2C(=O)[C@H](CCc2ccc(C(F)(F)F)c(Cl)c2)NC(=O)[C@@H](C)N(C)C(=O)[C@H](Cc2ccc(C)cc2)N(C)C(=O)[C@@H]2CCN2C(=O)[C@H](C)N(C)C1=O [Compound 1504] (cyclo([Ac5c][NMeGly(cPent)][d(β3hA)][NMeL]I[NMeA][Aze][NMePhe(4-Me)][dNMeA][hPhe(3-Cl-4-CF3)]P)) | 7.24 |
| CCCCN1CC(=O)N(C)CC(=O)N(C)[C@@H](COCCC(C)C)C(=O)N(C)CC(=O)N[C@@H](CCc2ccc(C(F)(F)F)c(Cl)c2)C(=O)N(C)[C@@H](COCC(C)(C)O)C(=O)NC(C)(C)C(=O)N(C)[C@@H](C(C)C)C(=O)N[C@H](C)CC(=O)N(C)[C@@H](CC(C)C)C(=O)N[C@@H]([C@@H](C)CC)C1=O [Compound 1505] (cyclo([Aib][NMeV][d(β3hA)][NMeL]I[NBuGly][Sar][NMeS](Isopentyl)[Sar][hPhe(3-Cl-4-CF3)][NMeS](CH2CMe2OH))) | 6.66 |
